Tested on: Caenorhabditis elegans
Experiment: C. elegans L1 nematicidal dose response in 96-well plates, 5 day visual score (Example 2; same procedure for Example 7, Table 3)
Type: in vivo
Set-up: key to 5 Day Visual Score V1 / 5 Day Visual Score V2 / 5 Day Visual Score V3 / 5 Day Visual Score V4 / 5 Day Visual Score V6 / 5 Day Visual Score V5 / Initial HTS Run Visual Score / Follow-up HTS Run Visual Score: Dead: only stiff L1s (no movement); Dead (L4): worms are dead, but at a later larval stage; majority of worms are L1 (based on size) worms move when plate is tapped; majority of worms are L2 (based on size); majority of worms are L3 (based on size); majority of worms are L4 (based on size); AD: majority of worms are adult; #AD: 5 adult worms or less; B!: sterile (0-25 progeny); B: low broodsize (25-100 progeny); ˜B: moderate broodsize (100-250 progeny); <: reduced broodsize (250-500 progeny); OK: no effect (˜1000+ progeny)
Conditions: for 5 Day Visual Score V1 / 5 Day Visual Score V2 / 5 Day Visual Score V4 / 5 Day Visual Score V5 / 5 Day Visual Score V6 / 5 Day Visual Score V3: dose response; for 5 Day Visual Score V1: dilution V1, day 5; for 5 Day Visual Score V2: dilution V2, day 5; for 5 Day Visual Score V4: dilution V4, day 5; for 5 Day Visual Score V5: dilution V5, day 5; for 5 Day Visual Score V6: dilution V6, day 5; for 5 Day Visual Score V3: dilution V3, day 5
Experimental: Caenorhabditis elegans adults were grown on Nematode Growth Medium (NGM) until they produced eggs, then the adults were removed.
The eggs were allowed to hatch, and the L1 larvae collected. See The Nematode Caenorhabditis elegans (1988) Cold Spring Harbor Laboratory Press. Using a Matrix Programmable Pipette, the L1s were distributed into 96-well tissue culture plates, 20 L1 in 50 μl NGM per well. Antibiotic/Antimyoticwas added to each well, and 1% by weight E. coli strain HB101. The subject anthelmintic compounds were stored at 5 mM in 100% DMSO. 0.7 μl of compounds 1-31 were added to the left-most column of wells to yield a final concentration of 70 μM in 1.4% DMSO, with 1.4% DMSO only as the control. The compounds were then subjected to 5 more 3-fold dilutions from left to right to yield 6 column concentrations of 70 μM, 23.3 μM, 7.8 μM, 2.6 μM, 0.9 μM, and 0.3 μM. Plates were stored in air-tight Rubbermaid plastic boxes at 20° C. The nematodes had cleared all control wells by day 4, and nematode viability was scored by visual examination under a 100× dissecting microsope on day 5. A visual viability scoring system was used as follows:
Column V1 has a compound concentration of 70 μM with sequential 3-fold dilutions reported in columns V2, V3, V4, V5, and V6, respectively, such that the V6 concentration was 0.3 μM.
The nematicidal activity of anthelmintic Compositions 48-168 were determined in accordance with the procedure outlined in Example 2.

Structure (SMILES) | Follow-up HTS Run % Run [%] | Follow-up HTS Run Visual Score | Follow-up HTS Run mOD [mOD] | Initial HTS Run % Run [%] | Initial HTS Run Visual Score | Initial HTS Run mOD [mOD] | 5 Day Visual Score V1 | 5 Day Visual Score V2 | 5 Day Visual Score V4 | 5 Day Visual Score V5 | 5 Day Visual Score V6 | 5 Day Visual Score V3
Cc1cccc(C)c1N1CCN(c2nsc(N3CCC(O)CC3)n2)CC1 [compound 218] | 78 | Dead | 125 | 91 | 1AD/B! | 100 | Dead | Dead | OK (no effect (˜1000+ progeny)) | OK (no effect (˜1000+ progeny)) | OK (no effect (˜1000+ progeny)) | –
Cc1cccc(C)c1N1CCN(c2nsc(N3CC(C)CC(C)C3)n2)CC1 (stereo not shown) [compound 219] | 74 | Dead/1AD/B! | 119 | 90 | 4AD/B | 99 | Dead | – | OK (no effect (˜1000+ progeny)) | OK (no effect (˜1000+ progeny)) | OK (no effect (˜1000+ progeny)) | –
CCCCN(CCCCO)c1nc(N2CCN(c3c(C)cccc3C)CC2)ns1 [compound 220] | 75 | Dead | 121 | 95 | 1AD/B! | 105 | Dead | – | OK (no effect (˜1000+ progeny)) | OK (no effect (˜1000+ progeny)) | OK (no effect (˜1000+ progeny)) | ˜B (moderate broodsize (100-250 progeny))
COCCN(CCOC)c1nc(N2CCN(c3c(C)cccc3C)CC2)ns1 [compound 221] | 84 | 5AD/B | 136 | 97 | L4/AD/B | 107 | #AD/˜B | – | OK (no effect (˜1000+ progeny)) | OK (no effect (˜1000+ progeny)) | OK (no effect (˜1000+ progeny)) | OK (no effect (˜1000+ progeny))
CCCN(CC1CC1)c1nc(N2CCN(c3ncccn3)CC2)ns1 [compound 222] | 126 | – | 203 | 106 | L2-Dead L3? | 117 | #AD/˜B | OK (no effect (˜1000+ progeny)) | OK (no effect (˜1000+ progeny)) | OK (no effect (˜1000+ progeny)) | OK (no effect (˜1000+ progeny)) | OK (no effect (˜1000+ progeny))
CCN(CC)C(=O)C1CCCN(c2nc(N3CCN(c4ccc(F)cc4)CC3)ns2)C1 (stereo not shown) [compound 223] | 118 | Dead | 190 | 107 | – | 118 | Dead | B (low broodsize (25-100 progeny)) | OK (no effect (˜1000+ progeny)) | OK (no effect (˜1000+ progeny)) | OK (no effect (˜1000+ progeny)) | < (reduced broodsize (250-500 progeny))
CCCCNc1nsc(N2CCN(c3cccc(C(F)(F)F)c3)CC2)n1 [compound 224] | 122 | L1 | 196 | 143 | – | 157 | Dead | Dead | OK (no effect (˜1000+ progeny)) | OK (no effect (˜1000+ progeny)) | OK (no effect (˜1000+ progeny)) | < (reduced broodsize (250-500 progeny))
Fc1ccc(CCNc2nsc(N3CCN(c4cccc(C(F)(F)F)c4)CC3)n2)cc1 [compound 225] | 107 | – | 172 | 114 | – | 125 | – | – | OK (no effect (˜1000+ progeny)) | OK (no effect (˜1000+ progeny)) | OK (no effect (˜1000+ progeny)) | ˜B (moderate broodsize (100-250 progeny))
FC(F)(F)c1cccc(N2CCN(c3nc(NCC4CCCCC4)ns3)CC2)c1 [compound 226] | 104 | – | 167 | 107 | – | 118 | L1 | ˜B (moderate broodsize (100-250 progeny)) | OK (no effect (˜1000+ progeny)) | OK (no effect (˜1000+ progeny)) | OK (no effect (˜1000+ progeny)) | OK (no effect (˜1000+ progeny))
Cc1cccc(C)c1N1CCN(c2nsc(N3CCN(c4c(C)cccc4C)CC3)n2)CC1 [compound 227] | 91 | Dead | 146 | 107 | Dead | 118 | Dead | Dead | OK (no effect (˜1000+ progeny)) | OK (no effect (˜1000+ progeny)) | OK (no effect (˜1000+ progeny)) | OK (no effect (˜1000+ progeny))
CCN(c1nc(N2CCN(c3c(C)cccc3C)CC2)ns1)C1CCCCC1 [compound 228] | 73 | Dead/1L4/1AD | 118 | 107 | 1AD/B! | 118 | Dead | Dead | OK (no effect (˜1000+ progeny)) | OK (no effect (˜1000+ progeny)) | OK (no effect (˜1000+ progeny)) | OK (no effect (˜1000+ progeny))
CCCCCCCCCCCCCCCCCCN(C)c1nc(N2CCN(c3c(C)cccc3C)CC2)ns1 [compound 229] | 81 | 5AD/B | 130 | 125 | Dead | 137 | Dead | – | OK (no effect (˜1000+ progeny)) | OK (no effect (˜1000+ progeny)) | OK (no effect (˜1000+ progeny)) | #AD/˜B
CCCCC(CC)CN(CC(CC)CCCC)c1nc(N2CCN(c3c(C)cccc3C)CC2)ns1 (stereo not shown) [compound 230] | 63 | 3AD/B | 101 | 121 | Dead/1AD/B! | 133 | Dead | – | < (reduced broodsize (250-500 progeny)) | OK (no effect (˜1000+ progeny)) | OK (no effect (˜1000+ progeny)) | –
Cc1cccc(C)c1N1CCN(c2nsc(N(CC(C)C)CC(C)C)n2)CC1 [compound 231] | 65 | 2AD/B | 105 | 119 | 2AD/B | 131 | Dead | Dead | OK (no effect (˜1000+ progeny)) | OK (no effect (˜1000+ progeny)) | OK (no effect (˜1000+ progeny)) | < (reduced broodsize (250-500 progeny))
